In patent US20210369691A1, “METHODS AND COMPOSITIONS FOR IMPROVING BONE MARROW HEMATOPOIETIC FUNCTIONS” (Sun Yat-Sen University, priority 2018, published 2021):

What was measured:
white blood cells [1] = assay: White blood cell recovery in peripheral blood after 5FU; format: in vivo, mice; conditions: after 5FU 150 mg/kg once; ABC294640 10 mg/kg every other day; days 0, 1, 5, 11; vs solvent control; FIG. 5
Protocol: (§1) Preparation of the SphK2 inhibitor was as described in Example 4. Twelve 8-week-old C57 mice purchased from Laboratory Animal Center, Sun Yat-sen University were selected and divided evenly into two groups. The mice were intraperitoneally injected with 5FU at a dose of 150 mg/kg once. The injection of the inhibitor ABC294640 and the solvent control solution was as described in Example 4, which started from the day after 5-fluorouracil injection, followed by injections once every other day, at a dose of 10 mg/kg, until the end of the experiment. Periphery blood (PB) of each mouse was separately collected to determine white blood cell (WBC) counts 0, 1, 5 and 11 days after 5-FU administration. T-test analysis was carried out using Graphpad6.0, and differences were considered statistically significant when P<0.05.

platelets [2] = assay: Platelet recovery in peripheral blood after X-ray radiation; format: in vivo, mice; conditions: after X-ray 450 cGy; ABC294640 10 mg/kg i.p. every other day; days 0, 1, 7, 14; vs solvent control; **P<0.01; FIG. 8
Protocol: (§2) Preparation of SphK2 inhibitors was as described in Example 4. Twelve 8-week-old C57 mice purchased from Laboratory Animal Center, Sun Yat-sen University were selected and divided evenly into two groups. The mice were treated with X-ray radiation at a dose of 450 cGy. The injection of the inhibitor ABC294640 and the solvent control solution was as described in Example 4. Intraperitoneal injection of the inhibitor or the solvent control solution started from the day after the X-ray radiation, followed by injections once every other day, at a dose of 10 mg/kg, until the end of the experiment. Periphery blood (PB) of each mouse was separately collected to determine white blood cell (WBC) counts 0, 1, 7 and 14 days after X-ray radiation. T-test analysis was carried out using Graphpad6.0, and differences were considered statistically significant when P<0.05.
(§3) The experiment was conducted as described in Example 7. Periphery blood (PB) of each mouse was separately collected to determine platelets (PLT) counts 0, 1, 7 and 14 days after X-ray radiation. T-test analysis was carried out using Graphpad6.0, and differences were considered statistically significant when P<0.05.

hematopoietic stem cells [3] = assay: Hematopoietic repopulation by transplantation of bone marrow cells from inhibitor-treated mice; format: in vivo
Protocol: To analyze whether Sphk2 deficient hematopoietic stem cells have increased hematopoietic function, 100 hematopoietic stem cells (Lin^−Sca-1^+c-Kit^+CD150^+CD48^−) from Sphk2 deficient mice or control donor mice were transplanted into irradiated wide-type recipients along with 2×10^5 CD45.1 bone marrow cells. Adult CD45.1 recipient mice were irradiated with an Orthovoltage X-ray source delivering approximately in two equal doses of 450 cGy at least 3 hours apart. Peripheral blood was collected from the tail vein every 4 weeks after the transplantation. Hematopoietic repopulation function was examined from donor-derived blood cells. To evaluate the hematopoietic function of the hematopoietic stem cells, 2×10^5 bone marrow cells from Sphk2 inhibitor or solvent control treated mice were transplanted into irradiated recipients (as described in Example 13). Peripheral blood was collected from the tail vein every 4 weeks after transplantation. The hematopoietic repopulation function was examined from donor-derived blood cells. The Sphk2 inhibitor was prepared as described in Example 4. Briefly, ABC294640 was purchased from Selleck and dissolved in dimethyl sulfoxide (DMSO), which was finally diluted with a mixture solution of polyethylene glycol 400 (PEG400) and physiological saline (1:1) to be administered at a dose of 10 mg/kg. […]

hematopoietic stem cells [4] = assay: Hematopoietic stem cell number in bone marrow after 5FU injury with ABC294640 treatment; format: in vivo, mice; conditions: vs solvent control
Protocol: In order to calculate the number of hematopoietic stem cells in mice, statistical quantification was performed for the number of hematopoietic stem cells using the molecular marker system Lin^−Sca1^+c-Kit^+CD150^+CD48^−, in combination with flow cytometry. Briefly, 2 million bone marrow cells were resuspended in 100 μl PBS, and 2 μl of a combination of anti-Lin, anti-Sca-1, anti-c-Kit, anti-CD150 and anti-CD48 was added. Samples were kept on ice for 1 h and washed with 1 ml of PBS, then resuspended with […] of PBS for flow cytometry analysis to determine the number of hematopoietic stem cells in the mouse bone marrow. T-test analysis was carried out using Graphpad6.0, and the difference was considered statistically significant when P<0.05. Twenty 8-week-old C57 mice (purchased from Laboratory Animal Center, Sun Yat-sen University) were injected intraperitoneally with 5FU at a dose of 150 mg/kg, respectively. After 5FU treatment, control mice (10 mice) were injected with a solvent control solution (1:1 physiological saline: PEG400) and the SphK2 inhibitor treatment mice (10 mice) were injected with the SphK2 inhibitor ABC294640. Briefly, 5FU was injected on day 1, and the inhibitor and solvent control solution were injected on day 2 and every other day, for five times in total. […] The SphK2 inhibitor ABC294640 was purchased from Selleck and dissolved in dimethyl sulfoxide (DMSO), it was then diluted with a mixture solution of polyethylene glycol 400 (PEG400) and physiological saline (1:1), and was injected to the mice with a dose of 10 mg/kg. T-test analysis was carried out using Graphpad6.0, and the differences were considered statistically significant when P<0.05.

[5] = Survival after serial 5FU challenges every 7 days with ABC294640 every other day; format: in vivo, mice; conditions: vs control, FIG. 30
Protocol: FIG. 30. illustrates the survival of C57BL/6J mice after serious 5FU treatment every 7 days and ABC294640 treatment every other day (n=10 mice group).
Repopulation analyses was also performed to investigate whether ABC294640 treatment functionally promotes HSC regeneration after chemotherapeutic stress.

white blood cells [6] = assay: White blood cell recovery in peripheral blood after X-ray radiation; format: in vivo, mice; conditions: after X-ray 450 cGy; ABC294640 10 mg/kg i.p. every other day; days 0, 1, 7, 14; vs solvent control; FIG. 7
Protocol: as §2

platelets [7] = assay: Platelet recovery in peripheral blood after 5FU; format: in vivo, mice; conditions: after 5FU 150 mg/kg once; ABC294640 10 mg/kg every other day; days 0, 1, 5, 11; vs solvent control; FIG. 6
Protocol: as §1
as §3, with “5.” for “7.”, “5” for “7”, “11” for “14”, “5-FU administration.” for “X-ray radiation.”

[8] = day 14 post 5FU treatment, FIG. 26

O=C(NCc1ccncc1)C12CC3CC(C1)CC(c1ccc(Cl)cc1)(C3)C2 [ABC294640, 3-(4-chloro-phenyl)-adamantane-1-carboxylic acid (pyridin-4-ylmethyl)-amide]
number of white blood cells from the peripheral blood (white blood cells [1]): significantly increased | number of platelets in the peripheral blood (platelets [2]): significantly increased | increase of hematopoietic reconstitution level (hematopoietic stem cells [3]; 16 weeks after transplantation of 2x10^5 bone marrow cells from treated mice, FIG. 14 panel c): 1.5 fold | generation of multi-hematopoietic lineages in recipients (hematopoietic stem cells [3]; recipients of bone marrow cells from inhibitor-treated mice, FIG. 14 panel d): able to generate multi-hematopoietic lineages | number of hematopoietic stem cells in bone marrow (hematopoietic stem cells [4]; after 5FU 150 mg/kg i.p., ABC294640 10 mg/kg every other day x5, day 12, **P<0.01, FIG. 4): increased significantly | increase of CD150 HSC pool size (hematopoietic stem cells [4]; [8]): about 2.2 fold | increase of LT-HSC pool size (hematopoietic stem cells [4]; [8]): about 2.2 fold | increase of ST-HSC pool size (hematopoietic stem cells [4]; [8]): about 1.6 fold | survival [5]: notably increased survival | number of white blood cells from the peripheral blood (white blood cells [6]): significantly increased | number of platelets from the peripheral blood (platelets [7]): significantly increased
